Test results: patent US20260295053A1, “COMPOUNDS FOR DEGRADATION AND INHIBITION OF KRAS (G12D) PROTEIN” (Shenzhen Ionova Life Science Co., Ltd., priority 2023, published 2026)

Target: T1, KRAS (G12D) (Homo sapiens, UniProt P01116, G12D)
T1 construct: in-cell western with KRAS G12D antibody after 24 h
Experiment: KRAS (G12D) cellular degradation assay in AsPC-1 cells
Type: cell-based
Settings: 24 hours, antibody fluorescence (Odyssey CLX), DC50 half-maximal degradation concentration
Method in brief: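 Half-maximal degradation (DC50) and inhibition (IC50) concentrations are fitted from dose-response curves spanning […] to 1.5 nM final. KRAS G12D loss is measured by fluorescent antibody staining with β-actin reference after 24 h; growth is measured by ATP luminescence after a 6-day exposure.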

T1 sequence (P01116 1-188 isoform P01116-2 G12D): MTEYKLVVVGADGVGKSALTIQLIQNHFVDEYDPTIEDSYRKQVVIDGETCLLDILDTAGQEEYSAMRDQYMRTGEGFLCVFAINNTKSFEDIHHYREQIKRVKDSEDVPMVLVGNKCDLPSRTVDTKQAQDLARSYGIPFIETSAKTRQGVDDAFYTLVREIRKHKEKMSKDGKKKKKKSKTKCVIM

| SMILES | DC50 [nM] |
| --- | --- |
| CO[C@@H](C)COc1nc(N(C)[C@H]2CCNC2)c2cc(C3CCC3)c(-c3c(C)c(F)c(F)c4[nH]ncc34)c(OCc3ccc(-c4cn([C@H](C(=O)N5C[C@H](O)C[C@H]5C(=O)N[C@H](c5ccc(-c6scnc6C)cc5)[C@@H](C)O)C(C)C)nn4)cc3)c2n1 [Example 175, (2S,4R)-1-((2S)-2-(4-(4-(((6-cyclobutyl-7-(6,7-difluoro-5-methyl-1H-indazol-4-yl)-2-((S)-2-methoxypropoxy)-4-(methyl((S)-pyrrolidin-3-yl)amino)quinazolin-8-yl)oxy)methyl)phenyl)-1H-1,2,3-triazol-1-yl)-3-methylbutanoyl)-4-hydroxy-N-((1R,2R)-2-hydroxy-1-(4-(4-methylthiazol-5-yl)phenyl)propyl)pyrrolidine-2-carboxamide] | 10 to 100 |
| CCn1nccc1-c1ccc([C@@H](NC(=O)[C@@H]2C[C@@H](O)CN2C(=O)[C@H](C(C)C)n2cc(-c3ccc(COc4c(-c5c(C)c(F)cc6[nH]ncc56)c(C5CC5)cc5c(N(C)[C@H]6CCNC6)nc(OC[C@@H]6CCCO6)nc45)cc3)nn2)[C@H](C)O)c2c1CC2 [Example 210, (2S,4R)-1-((2S)-2-(4-(4-(((6-cyclopropyl-7-(6-fluoro-5-methyl-1H-indazol-4-yl)-4-(methyl((S)-pyrrolidin-3-yl)amino)-2-(((S)-tetrahydrofuran-2-yl)methoxy)quinazolin-8-yl)oxy)methyl)phenyl)-1H-1,2,3-triazol-1-yl)-3-methylbutanoyl)-N-((1R,2S)-1-(5-(1-ethyl-1H-pyrazol-5-yl)bicyclo[4.2.0]octa-1(6),2,4-trien-2-yl)-2-hydroxypropyl)-4-hydroxypyrrolidine-2-carboxamide] | < 10 |
| CCn1cc2cccc(C#C[C@H](CO)NC(=O)[C@@H]3C[C@@H](O)CN3C(=O)[C@H](C(C)C)n3cc(-c4ccc(COc5c(-c6c(C)c(F)cc7[nH]ncc67)c(C6CC6)cc6c(N7C[C@@H]8C[C@H]7CN8)nc(O[C@H]7C[C@H](OC)C7)nc56)cc4)nn3)c2n1 [Example 168, (2S,4R)-1-((2S)-2-(4-(4-(((4-((1S,4S)-2,5-diazabicyclo[2.2.1]heptan-2-yl)-6-cyclopropyl-7-(6-fluoro-5-methyl-1H-indazol-4-yl)-2-((1r,3S)-3-methoxycyclobutoxy)quinazolin-8-yl)oxy)methyl)phenyl)-1H-1,2,3-triazol-1-yl)-3-methylbutanoyl)-N—((R)-4-(2-ethyl-2H-indazol-7-yl)-1-hydroxybut-3-yn-2-yl)-4-hydroxypyrrolidine-2-carboxamide] | 10 to 100 |
| CO[C@@H](C)COc1nc(N2C[C@@H]3C[C@H]2CN3)c2cc(C3CC3)c(-c3c(C)c(F)cc4[nH]ncc34)c(OCc3ccc(-c4cn([C@H](C(=O)N5C[C@H](O)C[C@H]5C(=O)N[C@H](C#Cc5cccc6sc(C)nc56)CO)C(C)C)nn4)cc3)c2n1 [Example 117, (2S,4R)-1-((2S)-2-(4-(4-(((4-((1S,4S)-2,5-diazabicyclo[2.2.1]heptan-2-yl)-6-cyclopropyl-7-(6-fluoro-5-methyl-1H-indazol-4-yl)-2-((S)-2-methoxypropoxy)quinazolin-8-yl)oxy)methyl)phenyl)-1H-1,2,3-triazol-1-yl)-3-methylbutanoyl)-4-hydroxy-N—((R)-1-hydroxy-4-(2-methylbenzo[d]thiazol-4-yl)but-3-yn-2-yl)pyrrolidine-2-carboxamide] | 10 to 100 |
| CO[C@H]1CC[C@H](Oc2nc(N3C[C@@H]4C[C@H]3CN4)c3cc(C4CC4)c(-c4c(C)c(F)cc5[nH]ncc45)c(OCc4ccc(-c5cn([C@H](C(=O)N6C[C@H](O)C[C@H]6C(=O)N[C@H](c6ccc(-c7scnc7C)cc6)[C@H](C)O)C(C)C)nn5)cc4)c3n2)C1 [Example 215, (2S,4R)-1-((2S)-2-(4-(4-(((4-((1S,4S)-2,5-diazabicyclo[2.2.1]heptan-2-yl)-6-cyclopropyl-7-(6-fluoro-5-methyl-1H-indazol-4-yl)-2-(((1S,3S)-3-methoxycyclopentyl)oxy)quinazolin-8-yl)oxy)methyl)phenyl)-1H-1,2,3-triazol-1-yl)-3-methylbutanoyl)-4-hydroxy-N-((1R,2S)-2-hydroxy-1-(4-(4-methylthiazol-5-yl)phenyl)propyl)pyrrolidine-2-carboxamide] | < 10 |
